Patent publication US10383848B2, “Indole-based therapeutics” (Creighton University, priority 2016, dated 2019)
Converted amounts (≈) assume the structure as drawn.

Key:
Assay type in all cases: cell-based
M. abscessus ATCC 19977 = assay: MIC, resazurin microtiter assay; settings: Mycobacteroides abscessus, ATCC19977; Mueller Hinton II; read-out: MIC M. abscessus ATCC 19977
[1] = system: M. massiliense CIP 108297; assay: MIC, resazurin microtiter assay; settings: Mycobacteroides abscessus, CIP108297, Mueller Hinton II; read-out: MIC M. massiliense CIP 108297
[2] = system: M. tuberculosis H37Rv mc^26206; assay: microbe, parasite or virus in culture; settings: Mycobacterium tuberculosis, H37RV; read-out: MIC M. tb H37 Rv (mc2-6206)
M. smegmatis mc^2155 = assay: MIC, resazurin microtiter assay; settings: Mycolicibacterium smegmatis, MC^2155, 7H9-ADC-0.05% Tween 80; read-out: MIC M. smeg. mc^2155
M. abscessus DCI #21 = assay: MIC, resazurin microtiter assay; settings: Mycobacteroides abscessus; Mueller Hinton II; read-out: MIC M. abscessus DCI #21
M. bolletii ATCC 14472 = assay: MIC, resazurin microtiter assay; settings: Mycobacteroides abscessus, ATCC14472, Mueller Hinton II; read-out: MIC M. bolletii ATCC 14472
M. massiliense CRM 0019 = assay: MIC, resazurin microtiter assay; settings: Mycobacteroides abscessus, CRM0019, Mueller Hinton II; read-out: MIC M. massiliense CRM 0019
M. chelonae ATCC 35752 = assay: MIC, resazurin microtiter assay; settings: Mycobacteroides chelonae, ATCC35752, Mueller Hinton II; read-out: MIC M. chelonae ATCC 35752
M. intracellulare 1956 = assay: MIC, resazurin microtiter assay; settings: Mueller Hinton II; read-out: MIC M. avium Intracellulare 1956
M. xenopi WT = assay: MIC, resazurin microtiter assay; settings: Mycobacterium xenopi, Mueller Hinton II; read-out: MIC M. xenopi WT
M. avium 104 = assay: MIC, resazurin microtiter assay; settings: Mycobacterium avium, 104; Mueller Hinton II; read-out: MIC M. avium 104

| Compound | MIC (M. abscessus ATCC 19977) | MIC [1] | MIC [2] | MIC (M. smegmatis mc^2155) | MIC (M. abscessus DCI #21) | MIC (M. bolletii ATCC 14472) | MIC (M. massiliense CRM 0019) | MIC (M. chelonae ATCC 35752) | MIC (M. intracellulare 1956) | MIC (M. xenopi WT) | MIC (M. avium 104) |
| --- | --- | --- | --- | --- | --- | --- | --- | --- | --- | --- | --- |
| O=C(NC1CCCCCC1)c1cc2ccccc2[nH]1 [Compound 11, N-cycloheptyl-1H-indole-2-carboxamide] | > 32 µg/mL | > 32 µg/mL | > 5 µg/mL | > 20 µg/mL | > 32 µg/mL | > 32 µg/mL | > 32 µg/mL | > 32 µg/mL | – | – | – |
| CCC12CC3CC(C1)CC(NC(=O)c1cc4c(C)cc(C)cc4[nH]1)(C3)C2 [Compound 21, N-(3-ethyl-1-adamantyl)-4,6-dimethyl-1H-indole-2-carboxamide] | > 32 µg/mL | > 32 µg/mL | – | > 20 µg/mL | > 32 µg/mL | > 32 µg/mL | > 32 µg/mL | > 32 µg/mL | > 32 µg/mL | > 32 µg/mL | > 32 µg/mL |
| Cc1cc(C)c2cc(C(=O)NC34CC5CC(CC(C5)C3)C4)[nH]c2c1 [Compound 20, N-1-adamantyl-4,6-dimethyl-1H-indole-2-carboxamide] | > 32 µg/mL | > 32 µg/mL | – | 1.25 to 2.5 µg/mL (≈ 3.88 to 7.75 µM) | 32 µg/mL (≈ 99.2 µM) | > 32 µg/mL | > 32 µg/mL | > 32 µg/mL | > 32 µg/mL | > 32 µg/mL | > 32 µg/mL |
| Cc1cc(C)c2cc(C(=O)NCC34CC5CC(CC(C5)C3)C4)[nH]c2c1 [Compound 23, N-(1-(1-adamantyl)methyl)-4,6-dimethyl-1H-indole-2-carboxamide] | > 32 µg/mL | > 32 µg/mL | – | > 20 µg/mL | > 32 µg/mL | > 32 µg/mL | > 32 µg/mL | > 32 µg/mL | > 32 µg/mL | 1 µg/mL (≈ 2.97 µM) | > 32 µg/mL |
| Cc1cc(C)c2cc(C(=O)NCc3cccc(Cl)c3)[nH]c2c1 [Compound 34, N-(3-chlorobenzyl)-4,6-dimethyl-1H-indole-2-carboxamide] | > 32 µg/mL | > 32 µg/mL | > 5 µg/mL | > 20 µg/mL | > 32 µg/mL | > 32 µg/mL | > 32 µg/mL | > 32 µg/mL | – | – | – |
| O=C(NC1CCCCCCC1)c1cc2ccccc2[nH]1 [Compound 10, N-cyclooctyl-1H-indole-2-carboxamide] | > 32 µg/mL | > 32 µg/mL | 0.39 µg/mL (≈ 1.44 µM) | 25 µg/mL (≈ 92.5 µM) | > 32 µg/mL | 32 µg/mL (≈ 118 µM) | 32 µg/mL (≈ 118 µM) | > 32 µg/mL | > 32 µg/mL | 2 µg/mL (≈ 7.4 µM) | > 32 µg/mL |
| CCC12CC3CC(C1)CC(NC(=O)c1cc4ccccc4[nH]1)(C3)C2 [Compound 6, N-(3-ethyl-1-adamantyl)-1H-indole-2-carboxamide] | > 32 µg/mL | > 32 µg/mL | 1.25 µg/mL (≈ 3.88 µM) | > 20 µg/mL | > 32 µg/mL | > 32 µg/mL | > 32 µg/mL | > 32 µg/mL | > 32 µg/mL | 1 to 2 µg/mL (≈ 3.1 to 6.2 µM) | > 32 µg/mL |
| Cc1cc(C)c2cc(C(=O)NC(C)C34CC5CC(CC(C5)C3)C4)[nH]c2c1 (centres unmarked) [Compound 22, N-(1-(1-adamantyl)ethyl)-4,6-dimethyl-1H-indole-2-carboxamide] | 16 µg/mL (≈ 45.6 µM) | 8 µg/mL (≈ 22.8 µM) | – | > 20 µg/mL | > 32 µg/mL | 16 µg/mL (≈ 45.6 µM) | 8 µg/mL (≈ 22.8 µM) | 16 µg/mL (≈ 45.6 µM) | > 32 µg/mL | > 32 µg/mL | > 32 µg/mL |
| CCCCCCCCNC(=O)c1cc2ccccc2[nH]1 [Compound 18, N-octyl-1H-indole-2-carboxamide] | > 32 µg/mL | > 32 µg/mL | > 10 µg/mL | > 25 µg/mL | > 32 µg/mL | > 32 µg/mL | > 32 µg/mL | > 32 µg/mL | – | – | – |
| Cc1cc(C)c2cc(C(=O)NC3CCC(C)CC3)[nH]c2c1 (centres unmarked) [Compound 29, 4,6-dimethyl-N-((1s,4s)-4-methylcyclohexyl)-1H-indole-2-carboxamide] | ≤ 0.06 µg/mL | ≤ 0.06 µg/mL | – | > 20 µg/mL | ≤ 0.06 µg/mL | ≤ 0.06 µg/mL | ≤ 0.06 µg/mL | ≤ 0.06 µg/mL | > 32 µg/mL | 0.25 to 1 µg/mL (≈ 0.879 to 3.52 µM) | > 32 µg/mL |
| O=C(NCc1cccc(Cl)c1)c1cc2ccccc2[nH]1 [Compound 19, N-(3-chlorobenzyl)-1H-indole-2-carboxamide] | > 32 µg/mL | > 32 µg/mL | > 5 µg/mL | > 20 µg/mL | > 32 µg/mL | > 32 µg/mL | > 32 µg/mL | > 32 µg/mL | – | – | – |
